Results published in patent publication US20120022129A1, “Targeting of Histone Deacetylase 2, Protein Kinase CK2, and Nuclear Factor NRF2 For Treatment of Inflammatory Diseases” (priority 2008, published 2012).
Where a SMILES comes first, the peptide text is derived from it. [ ]: non-standard residue; d: D form. Nle = CCCC[C@H](N)C(=O)O

Columns and labels:
[1] = tested on: HDAC2; assay: Ubiquitination of immunoprecipitated HDAC2 in MonoMac6 cells; type: cell-based, human
Description: FIG. 4: CSE-mediated degradation of HDAC2 is ubiquitin-proteasome dependent in MonoMac6 cells. […] Immunoprecipitated HDAC2 was assayed for bound ubiquitin using specific ubiquitin anti-sera. […] (D) The relative density of ubiquitin expression in MonoMac6 cells after proteasome inhibition of CSE-induced HDAC2 degradation normalized to immunoprecipitated HDAC2.
(§1) Cell lysate controls were used.
(§2) To further confirm this hypothesis, it was determined if exposure to okadaic acid would induce ubiquitination and degradation of HDAC2. […] Immunoprecipitated HDAC2 was then assayed for the presence of ubiquitinated residues using specific ubiquitin anti-sera by western blot. […] To further confirm the hypothesis, MonoMac6 cells were treated with okadaic acid (1 μM) for 0.5 h, cells were fixed in 4% paraformaldehyde and immunostained with anti-HDAC2 antibodies to determine HDAC2 localization.

[2] = tested on: HDAC2; assay: HDAC2 immunostaining (localization) in MonoMac6 cells; type: cell-based, human; details: okadaic acid 1 μM, 0.5 h
Description: (B) Relative density of HDAC2 levels in human macrophage cells (MonoMac6 cells) at various time points of exposure to CSE.
To determine if CSE induced significant HDAC2 nucleo-cyloplasmic shuttling, MonoMac6 cells were treated with CSE (2.5%) for 4 and 6 h, cells were fixed in 4% paraformaldehyde and immunostained with anti-HDAC2 antibodies to determine HDAC2 localization. […] To determine whether shuttling occurred at earlier time points subsequent to degradation of HDAC2, MonoMac6 cells were exposed to CSE (2.5%) for 0.5 h and 1 h (data not shown).
as §2

[3] = tested on: HDAC2; assay: Phosphorylation of immunoprecipitated HDAC2 in MonoMac6 cells; details: okadaic acid 1 μM, 0.5 and 1 h
Description: MonoMac6 cells were washed with Ca^2+/Mg^2+ free PBS and seeded at a density of 5.0×10^6 cells in 100 mm culture plates in a total volume of 7 ml RPMI-1640 containing 0.5% FBS. Cells were treated with CSE (2.5%) or Okadaic acid (40 nM and 1 μM) (Alexis Biochemicals, San Diego, Calif.). For treatments with protein casein kinase CK2 inhibitor, 4,5,6,7-tetrabromobenzotriazole (TBB), cells were pretreated with 20 μM TBB (Sigma, St. Louis, Mo.) for 1 or 2 h, cells were then washed with sterile PBS before treatment with CSE. […] Cells were treated with CSE (2.5%), washed in ice-cold sterile Ca^2+/Mg^2+ free PBS and lysed in RIPA buffer (50 mM Tris HCl pH 7.4, 150 mM NaCl, 0.25 mM EDTA, 5 mM NaF, 0.1% sodium deoxycholate, 1% Triton X-100); cell extracts and cell culture media were stored at −80° C. until analyzed.
Cell lysate (200 μg protein) was incubated for overnight with anti-HDAC2 (2 μg) at 4° C., then immunoprecipitated with Protein G-agarose beads for 1 h with constant agitation. Beads were washed at least four times with RIPA buffer, boiled for 10 minutes in 35 μl 2× sample buffer and resolved on a 7.5% SDS-polyacrylamide gel. Cell lysate controls were used. Blots were probed with p-serine (1:1000) and p-threonine (1:1000) (Cell Signaling, Boston, Mass.) monoclonal antibodies for studies on the post-translational modification of HDAC2.

[4] = tested on: CK2α; assay: CK2α phosphorylation in H292 cells; type: cell-based, human; details: okadaic acid 100 nM and 1 μM, 0.5 and 1 h
Description: FIG. 15: CK2α Is Phosphorylated In Response to CSE. […] 80 μg whole cell lysates were then treated with 400 U of λ-phosphatase or buffer alone for 1 h at 30° C. The reaction was stopped by adding equal volume of 2× sample buffer and relative CK2α expression determined by western blotting. D) H292 cells were treated with 100 nM and 1 μM okadaic acid for 0.5 and 1 h. Relative CK2α expression was determined by western blotting using 20 μg whole cell lysates.

[5] = tested on: MonoMac6 cells; type: cell-based, human
Description: In this study, it was determined the time-dependent effect of CSE on class I HDAC levels MonoMac6 cells were exposed to CSE (2.5%) for 0.5, 1, 2, 4 and 6 h. […] To determine whether class 1 HDAC degradation was due to decreased CSE-induced cell viability, the levels of lactate dehydrogenase (LDH) secreted into conditioned cell media was measured immediately after harvest.

[6] = tested on: LPS-induced lung inflammation; assay: LPS-induced lung inflammation in WT mice; type: in vivo, mouse
Description: LPS exposure studies in mice were performed as described previously. Briefly, age-matched WT, Nrf2−/− and HDAC2−/− were exposed to aerosolized Escherichia coli LPS (1 mg/ml) for 8 minutes. Aerosolized saline-exposed mice were used as controls, and animals were sacrificed at 24 h post last exposure.
Corticosteroid treatment.
Bronchoalveolar lavage. Mice were anaesthetized by pentobarbital (Abbott Laboratories, Abbott Park, Ill.) intraperitoneal injection (100 mg/kg body weight) before sacrifice. Lungs were then removed and lavaged three times with 0.6 ml of 0.9% sodium chloride with cannula inserted into the trachea. Total lavage fluid for each mouse was combined and then centrifuged. Supernatants were frozen at −80° C. until required for further analysis and cell pellets resuspended in 1 ml of saline, and total number of cells determined using a haemocytometer. Differential counts (minimum 500 per slide) were determined using Diff-Quik (Dade Behring, Newark, Del.)-stained cytospin slides.
Cytokine Analysis. Monocyte chemotactic protein 1 (MCP-1) levels were measured from mouse lung soluble protein by enzyme-linked immunosorbent assay (ELISA) with the duo-antibody kit (R & D Systems). Results were normalized to protein concentration per sample.

[7] = tested on: LPS-induced lung inflammation; assay: LPS-induced lung inflammation in HDAC2−/− mice; type: in vivo, mouse
Text: Mice. The Nrf2 knockout (KO) mouse strain (Nrf2−/− on C57BL/6J background) used in this study is described earlier and was generously supplied by Prof. Masayuki Yamamoto, University of Tsukuba, Japan via the RIKEN BioResource Center, Tsukuba, Japan. HDAC2 mutant (HDAC2−/− on C57BL/6J background) mice were kindly provided by Dr. J. A. Epstein (University of Pennsylvania School of Medicine, Philadelphia, Pa.). […] Wild-type (WT) C57BL/6J mice were purchased from Jackson laboratories (Bar Harbor, Me.). All animal protocols for this study were approved by the University Committee on Animal Research of the University of Rochester.
LPS exposure studies in mice were performed as described previously. Briefly, age-matched WT, Nrf2−/− and HDAC2−/− were exposed to aerosolized Escherichia coli LPS (1 mg/ml) for 8 minutes. […]
Bronchoalveolar lavage. […] Supernatants were frozen at −80° C. until required for further analysis and cell pellets resuspended in 1 ml of saline, and total number of cells determined using a haemocytometer. Differential counts (minimum 500 per slide) were determined using Diff-Quik (Dade Behring, Newark, Del.)-stained cytospin slides.
Cytokine Analysis. Monocyte chemotactic protein 1 (MCP-1) levels were measured from mouse lung soluble protein by enzyme-linked immunosorbent assay (ELISA) with the duo-antibody kit (R & D Systems). […]

[8] = tested on: HDAC2; assay: HDAC2 levels by western blot in MonoMac6 cells; details: then CSE 2.5% 6 h
Description: The human monocyte-macrophage cell line (MonoMac6) was established from the peripheral blood of a subject with monoblastic leukemia (21). […]
MonoMac6 cells were washed with Ca^2+/Mg^2+ free PBS and seeded at a density of 5.0×10^6 cells in 100 mm culture plates in a total volume of 7 ml RPMI-1640 containing 0.5% FBS. […] Cells were treated with CSE (2.5%), washed in ice-cold sterile Ca^2+/Mg^2+ free PBS and lysed in RIPA buffer (50 mM Tris HCl pH 7.4, 150 mM NaCl, 0.25 mM EDTA, 5 mM NaF, 0.1% sodium deoxycholate, 1% Triton X-100); cell extracts and cell culture media were stored at −80° C. until analyzed.
Cells were lysed in 100 μl RIPA buffer supplemented with protease inhibitor cocktail (leupeptin, aprotinin, pepstatin and PMSF) and stored at −80° C. […] After extensive washing, primary antibodies were detected with secondary antibodies linked to horseradish peroxidase (Dako, Carpinteria, Calif.) and bound complex detected with enhanced chemiluminescence (PerkinElmer, Waltham, Mass.).

[9] = tested on: HDAC2; assay: Co-immunoprecipitation of flag-tagged HDAC2 with binding partners in H292 cells; type: cell-based, human; details: H292, flag-tagged WT HDAC2; TBB 40 μM 2 h and 90 μM 0.5 h, then CSE 2.5% 0.5 h
Description: FIG. 16: HDAC2 serine phosphorylation is associated with increased interaction with catalytic subunits of protein kinase CK2 in response to CSE. A) Bronchial epithelial H292 cells transfected with either a control vector (control V) or flag-tagged WT HDAC2 were treated with 2.5% CSE for 0.5 h. […] C) Bronchial epithelial H292 cells transfected with flag-tagged WT HDAC2 were treated with either 2.5% CSE for 0.5 h, 25 or 50 μM Acrolein for 1 h and 200 μM H202 for 0.5 and 2 h respectively.
A) H292 cells cultured on 8-well chamber slides were treated with 2.5% CSE for 0.5 h or 50 μM Acrolein for 1 h, washed and fixed with 4% PFA. Slides were incubated with HDAC2 and α-tubulin antibodies overnight at […]. Slides were mounted with antifade mounting solution and images analysed by an Olympus inverted microscope. B) H292 cells were transfected with plasmid vector (Ctrl V) or flag-tagged WT HDAC2 (1-488) for 24 h with lipofectamine 2000. Cells were treated with 2.5% CSE for 0.5 h and flag proteins immunoprecipitated using M2 anti-flag antibodies overnight at 4° C. HDAC1 and C) p53 interaction were determined by western blot. D) H292 cells were transfected with plasmid vector (Ctrl V), flag-tagged WT HDAC2 (1-488) or S^394/^411/^422/^424A and 1-400 amino acid HDAC2 mutants for 24 h with lipofectamine 2000. Cells were then exposed to 2.5% CSE for 0.5 h. Levels of HDAC2 interaction with HDAC1 were determined by western blotting using specific antibodies. E) H292 cells were transfected with flag-tagged WT HDAC2 (1-488) for 24 h with lipofectamine 2000. […] Levels of phospho-serine and HDAC2 interaction with SAP30, RbAp46/48, MBD3 and p65 were determined by western blotting using specific antibodies respectively. […] Levels of HDAC1 and p65 binding to immunoprecipitated flag-tagged HDAC2 was determined by western blotting. […] Deacetylase activity of immunoprecipitated HDAC2 was determined using a specific HDAC2 deacetylase activity kit. Data expressed as mean±SEM (n=3). *** P<0.001 significant compared to control treatments.

[10] = tested on: HDAC2; assay: Serine phosphorylation of immunoprecipitated HDAC2 in H292 cells; type: cell-based, human
Description: FIG. 6: CSE induced CK2-dependent HDAC2 phosphorylation in bronchial epithelial and small airway epithelial cells. [A (i)] H292 cells were treated with CSE (2.5%) for 0.5, 1, 2 and 4 h. Immunoprecipitated HDAC2 was analyzed for phosphorylation of serine residues using specific phospho-serine antibodies by SDS polyacrylamide gel. CSE induced significant cyclical phosphorylation of HDAC2 on serine residues at 0.5, 1 and 4 h. [A (ii)] Relative density of phosphor-serine expression normalized to immunoprecipitated HDAC2. [B (i)] […] Immunoprecipitated HDAC2 from whole cell lysates was probed for phosphorylation of serine residues, CSE induced a dose-dependent increase in HDAC2 serine phosphorylation. [B (ii)] Relative density of phospho-serine expression normalized to immunoprecipitated HDAC2. (C) H292 cells were treated with or without specific CK2 inhibitor, TBB. for 1 h, cells were washed with sterile 1×PBS and then treated with freshly prepared CSE (2.5%) for 0.5 h, Immunoprecipitated HDAC2 was assayed for phosphorylation on serine residues. […] (D) Relative density of phosphor-serine expression normalized to immunoprecipitated HDAC2.
FIG. 14: Loss of Serine Sites S^394, S^422, S^424 Abrogates Cigarette Smoke Extract (CSE)-Induced Phosphatase-Independent HDAC2 Phosphorylation. A) Bronchial epithelial H292 cells were transfected with plasmid vector or flag-tagged WT HDAC2 (1-488) for 24 h using lipofectamine 2000 and then treated with or without 2.5% CSE for 0.5 h or B) 50 μM. acrolein for 1 h. Flag-tagged proteins were immunoprecipitated overnight and serine phosphorylation detected by western blots using phospho-serine antibodies. C) Flag-tagged WT HDAC2 was immunoprecipitated from whole cell lysates of H292 cells treated with 2.5% CSE for 0.5 h. Immunoprecipates were then washed and treated with 400 U of λ-phosphatase or buffer alone for 1 h at 30° C. Phosphorylation of serine sites were detected by western blots using anti-serine antibodies. D) H292 cells were transfected with plasmid vector, flag-tagged WT HDAC2 (1-488) or S394A, S394/411/422/424A and 1-400 aa HDAC2 mutants for 24 h with lipofectamine 2000. Cells were then treated with 2.5% CSE for 0.5 h. Serine phosphorylation of immunoprecipitated flag proteins was determined by western blot. E) Phosphatase activity was determined using non-radioactive assay system (Promega). H292 cells were treated with or without 2.5% CSE for 0.5, 2 and 6 h with serine/threonine […] (okadaic acid) used as a positive control. 5 μg protein was incubated with PP2A specific-peptide substrate RRA(pT)VA and reaction buffer for 15 minutes in a 96-well plate. Molybdate dye/additive mixture was added to stop the reaction and color allowed to develop for 15 minutes. Optical density of samples was determined using a microplate reader with a 630 nm filter.
FIG. 18: Protein Kinase CK2 Inhibitors Blocks CSE-Induced HDAC2 Phosphorylation. A) Bronchial epithelial H292 cells transfected with a flag-tagged WT HDAC2 plasmid were treated with 2.5% CSE for 0.5 h. […] B) Relative density of phospho-serine expression normalized to immunoprecipitated HDAC2. Data expressed as mean±SEM (n=3). *** P<0.001, ### P<0.001 significant compared to control treatments.
as §1

[11] = tested on: A549 epithelial cells; assay: Histone acetylation:deacetylation in A549 epithelial cells; type: cell-based
Text: The effect of cigarette smoke extract/condensate (CSC/CSE) and oxidative stress on histone acetylation:deacetylation and pro-inflammatory gene transcription in A549 epithelial cells has been investigated. […] CSE-mediated decrease in HDAC2 level was associated with posttranslational modifications by 4-hydroxy-2-nonenal and nitric oxide radicals generated by cigarette smoke exposure.

With `C=C1[C@@H](O)[C@@H]2O[C@]3(CC[C@H](/C=C/[C@@H](C)[C@@H]4CC(C)=C[C@@]5(O[C@H](C[C@@](C)(O)C(=O)O)CC[C@H]5O)O4)O3)CC[C@H]2O[C@@H]1[C@@H](O)C[C@H](C)[C@H]1O[C@@]2(CCCCO2)CC[C@H]1C` [okadaic acid] the “ubiquitination of HDAC2” value ([1]; okadaic acid 40 nM, 24 h) was “significantly induced the ubiquitination of HDAC2”, the “nuclear HDAC2 (immunostaining)” value [2] was “significantly induced the loss of nuclear HDAC2” and the “nucleo-cytoplasmic shuttling of HDAC2” value [2] was “no nucleo-cytoplasmic shuttling of HDAC2 was observed”. The “phosphorylation of HDAC2 on serine residues” value [3] was “significantly induced the phosphorylation of HDAC2 on serine residues”, the CK2α phosphorylation [4] was “induced CK2α phosphorylation” and the “toxicity to cells (trypan blue viability, morphology)” value ([5]; okadaic acid 40 nM, 24 h) was “not toxic to the cells”. For the same molecule, the cell death ([5]; okadaic acid 1 μM, beyond 1 h) was “induced cell death”.
With `CCCC1O[C@@H]2C[C@H]3[C@@H]4CCC5=CC(=O)C=C[C@]5(C)[C@H]4[C@@H](O)C[C@]3(C)[C@]2(C(=O)CO)O1` (stereo partly drawn) [budesonide] the “attenuation of lung neutrophil influx following LPS exposure” value ([6]; budesonide 3 mg/kg pretreatment) was roughly 50%, the “efficacy in decreasing MCP-1 release” value ([6]; budesonide, LPS exposure) was 49.4% and the “neutrophil counts in BALF” value ([7]; budesonide 3 mg/kg pretreatment, LPS) was “no effect”. The “efficacy in decreasing MCP-1 release” value ([7]; budesonide, LPS exposure) was 26.4%.
In the case of `CCCC[C@@H](C=O)NC(=O)[C@H](CC(C)C)NC(=O)[C@H](CC(C)C)NC(C)=O` [ALLN, N-Acetyl-Leu-Leu-Nle-CHO] (Ac-Leu-Leu-[Nle]-aldehyde), the “CSE-induced HDAC2 ubiquitination” value ([1]; ALLN 1 μM pre-treatment, CSE 2.5% 6 h) is reported as “further enhanced” and the “CSE-induced HDAC2 degradation” value ([8]; ALLN 1 μM and 5 μM pretreated 2 h) is reported as “dose-dependently inhibited HDAC2 degradation”.
`Brc1c(Br)c(Br)c2[nH]nnc2c1Br` [TBB] was tested, and the “CSE-induced HDAC2 degradation” value ([8]; TBB 20 μM pre-treated 2 h) was “significantly attenuated HDAC2 degradation”, the “HDAC2 interaction with HDAC1 and p65” value [9] was “blocked HDAC2 interaction with both HDAC1 and p65” and the “CSE-induced HDAC2 phosphorylation” value ([10]; H292, flag-tagged WT HDAC2, TBB 50 μM pre-treated 2 h, then CSE 2.5% 0.5 h) was “completely inhibiting CSE-induced HDAC2 phosphorylation”. The “CSE-induced HDAC2 phosphorylation” value ([10]; H292, TBB 20 μM pretreated 1 h, then CSE 0.5 h) was “completely reversed CSE-induced HDAC2 phosphorylation” and the “CSE-induced HDAC2 phosphorylation” value ([10]; H292, TBB 25 μM pre-treated, then CSE) was “inhibit HDAC2 phosphorylation but not as efficiently”.
In the case of `OO` [H2O2, hydrogen peroxide], the “histone deacetylase (HDAC) activity and HDAC2 protein levels” value ([11]; H2O2) is reported as “inhibited”, the “histone acetylation (with histone acetyltransferase activity)” value ([11]; hydrogen peroxide 100 μM) is reported as “caused an increase in histone acetylation” and the HDAC2 phosphorylation ([10]; H292, flag-tagged WT HDAC2, H2O2 200 μM, 0.5 and 2 h) is reported as “inability”.
